From publication PMC8069510, “Synthesis and Evaluation of Novel 2,2-Dimethylthiochromanones as Anti-Leishmanial Agents” (Molecules, 2021)
pEC50, pIC50: −log10 of the molar value. Like-named read-outs stand apart in the source and are kept apart here.

What was measured:
[1] = system: L. infantum axenic amastigotes; assay: Antileishmanial activity on L. infantum axenic amastigotes (luciferase luminescence); assay type: cell-based, Leishmania infantum; conditions: for pIC50 / activity against L. infantum (in words): axenic amastigotes; for pIC50: 48 h incubation, mean (standard deviation), three independent experiments; for S.I. (Selectivity Index) = CC50/IC50: CC50 J774A.1 / IC50 L. infantum axenic amastigotes
Procedure: (§1) Selected compounds were evaluated for their leishmanicidal ability as previously described, through examining their activity on L. infantum axenic amastigotes, and the results are expressed in Table 2 as IC50 values. In parallel, evaluation of the cytotoxicity of test compounds was performed by MTT assay using the J774A.1 macrophage cell line. Results are presented as CC50 values.
4.2. Bioassay Procedures: Antileishmanial Activity on L. infantum Axenic Amastigotes
L. infantum promastigotes (MHOM/MA/67/ITMAP-263, CNR Leishmania, Montpellier, France, expressing luciferase activity) were cultivated in RPMI 1640 medium supplemented with 10% foetal calf serum (FCS), 2 mM L-glutamine and antibiotics (100 U/mL penicillin and 100 μg/mL streptomycin) and harvested in the logarithmic phase of growth by centrifugation at 900× g for 10 min. The supernatant was carefully removed and replaced by the same volume of RPMI 1640 complete medium at pH 5.4, and then incubated for 24 h at 24 °C. The acidified promastigotes were then incubated for 24 h at 37 °C in a ventilated flask to transform promastigotes into axenic amastigotes. The effects of the tested compounds on the growth of L. infantum axenic amastigotes were assessed as follows. L. infantum amastigotes were incubated at a density of 2 × 10^6 parasites/mL in sterile 96-well plates with various concentrations of compounds dissolved in DMSO (final concentration less than 0.5% v/v), in duplicate. Appropriate controls, DMSO and amphotericin, were added to each set of experiments. After a 48 h incubation period at 37 °C, each plate-well was then microscopically examined to detect any precipitate formation. To estimate the luciferase activity of axenic amastigotes, 80 μL of each well were transferred to white 96-well plates, Steady Glow® reagent (Promega, Charbonnières-les-Bains, France) was added according to the manufacturer’s instructions, and plates were incubated for 2 min. The luminescence was measured using a Microbeta Luminescence Counter (Perkin Elmer, Villebon-sur-Yvette, France). The inhibitory concentration 50% (IC50) was defined as the concentration of drug required to inhibit by 50% the metabolic activity of L. infantum amastigotes compared to control. IC50 values were calculated by non-linear regression analysis on dose response curves, using the TableCurve 2D V5 software (Systat Software, San Jose, CA, USA). IC50 values represent the mean of three independent experiments.

[2] = system: axenic amastigotes of L. infantum; design: method as in PMID 32258470; conditions: cited from earlier work
[3] = system: intracellular amastigotes of L. infantum; design: method as in PMID 32258470; conditions: cited from earlier work
[4] = system: amastigotes of L. infantum; design: method as in PMID 29935351; conditions: cited from earlier work
[5] = system: amastigotes of Trypanosoma cruzi; design: method as in PMID 29935351; conditions: cited from earlier work
L. (V) panamensis = conditions: read-out: EC50 against L. (V) panamensis, cited from earlier work
[6] = design: method as in PMID 29286346; conditions: cited from earlier work
L. braziliensis = system: L. braziliensis; design: method as in PMID 32734890; conditions: topical application, co-formulated with saponins; cited from earlier work
L. pifanoi = system: L. pifanoi; design: method as in PMID 32734890; conditions: topical application, co-formulated with saponins; cited from earlier work
[7] = Cytotoxicity by MTT assay on J774A.1 macrophage cell line; assay type: cell-based, mouse; conditions: mouse, J774A.1 macrophage cells; MTT, 72 h incubation; mean (standard deviation)
Procedure: as §1
(§2) 4.3. Cytotoxicity Evaluation on J774A.1 Cells
(§3) Evaluation of the cytotoxicity of test compounds was performed by MTT assay using the J774A.1 cell line (mouse macrophage cell line, Sigma-Aldrich). Briefly, cells (5 × 10^4 cells/mL) in 100 µL of complete medium, [DMEM High glucose supplemented with 10% fetal calf serum (FCS), 2 mM L-glutamine and antibiotics (100 U/mL penicillin and 100 µg/mL streptomycin)] were seeded into each well of 96-well plates and incubated at 37 °C in a humidified 5% CO2 with 95% air atmosphere. After a 24 h incubation, 100 µL of medium with various product concentrations and appropriate controls were added and the plates were incubated for 72 h at 37 °C. Each plate-well was then examined under the microscope to detect possible precipitate formation before the medium was aspirated from the wells. 100 µL of MTT solution (0.5 mg/mL in RPMI) was then added to each well. Cells were incubated for 2 h at 37 °C. After this time, the MTT solution was removed and DMSO (100 µL) was added to dissolve the resulting formazan crystals. Plates were shaken vigorously (300 rpm) for 5 min. The absorbance was measured at 570 nm with a microplate spectrophotometer. DMSO was used as blank and doxorubicin (Sigma Aldrich, Saint-Quentin-Fallavier, France) as positive control. CC50 values were calculated by non-linear regression analysis on dose–response curves, using the TableCurve 2D V5 software.

J774A.1 cells = assay: as above; assay type: cell-based, mouse
Procedure: as §1, §2, §3

Molecule | pIC50 ([1]; Leishmania infantum) | S.I. (Selectivity Index) = CC50/IC50 [1] | CC50 at 72 h [7] [µM] | also measured
C[C@@H]1[C@H](O)[C@@H](C)/C=C/C=C/C=C/C=C/C=C/C=C/C=C/[C@H](O[C@@H]2O[C@H](C)[C@@H](O)[C@H](N)[C@@H]2O)C[C@@H]2O[C@](O)(C[C@@H](O)C[C@@H](O)[C@H](O)CC[C@@H](O)C[C@@H](O)CC(=O)O[C@H]1C)C[C@H](O)[C@H]2C(=O)O [Amphotericin B, reference compound] | 7.14 |  |  | 
CCCCCCCCNCc1ccc2c(c1)C(=O)CC(C)(C)O2 [Compound 3] |  |  |  | pIC50 [2]: 4.60; pIC50 [3]: 4.61
CCCCCCCCNCc1ccc(OC)cc1 [Compound 5] |  |  |  | pIC50 [4]: 5.89; pIC50 [5]: 5.24
O=C1C=C(c2ccc(C(F)(F)F)cc2)S(=O)(=O)c2ccc(F)cc21 [Compound 6] |  |  |  | pEC50 (L. (V) panamensis): > 5.00
NC(=S)N/N=C1\CC(c2ccccc2)Sc2ccccc21 (stereo not shown) [Compound 7] |  |  |  | cytotoxicity (in words) [6]: low cytotoxicity; pEC50 (L. (V) panamensis; acyl hydrazone derivatives): 5.29
O=C(N/N=C1\CCSc2ccccc21)c1ccccc1 [Compound 8] |  |  |  | effect on parasite survival and infectivity (in words) (L. braziliensis): very effective; effect on parasite survival and infectivity (in words) (L. pifanoi): very effective
CC1(C)CC(=O)c2cc(COC(=O)C/C=C/c3ccccc3)ccc2S1 [Compound 10a, (2,2-Dimethyl-4-oxothiochroman-6-yl)methyl (E)-4-phenylbut-3-enoate] | 4.46 | >3.97 | > 136 | 
CC1(C)CC(=O)c2cc(COC(=O)/C=C/C=C/c3ccc4c(c3)OCO4)ccc2S1 [Compound 10b, (2,2-Dimethyl-4-oxothiochroman-6-yl)methyl (2E,4E)-5-(benzo[d][1,3]dioxol-5-yl)penta-2,4-dienoate] | 4.04 | 0.25 | 22.5 | 
CC1(C)CC(=O)c2cc(CNC(=O)C/C=C/c3ccccc3)ccc2S1 [Compound 11a, (E)-N-((2,2-Dimethyl-4-oxothiochroman-6-yl)methyl)-4-phenylbut-3-enamide] | 4.98 | 3.01 | 31.6 | activity against L. infantum (in words) [1]: notable anti-leishmanial activity
CC1(C)CC(=O)c2cc(CNC(=O)/C=C/C=C/c3ccc4c(c3)OCO4)ccc2S1 [Compound 11c, (2E,4E)-5-(Benzo[d][1,3]dioxol-5-yl)-N-((2,2-dimethyl-4-oxothiochroman-6-yl)methyl)penta-2,4-dienamide] | < 3.93 |  | > 119 | activity against L. infantum (in words) [1]: devoid of activity
CCCCCCCC(=O)NCc1ccc2c(c1)C(=O)CC(C)(C)S2 [Compound 11d, N-((2,2-Dimethyl-4-oxothiochroman-6-yl)methyl)octanamide] | 4.29 | 2.68 | 137 | 
CC1(C)CC(=O)c2cc(CNC(=O)CCCCCCCCBr)ccc2S1 [Compound 11e, 9-Bromo-N-((2,2-dimethyl-4-oxothiochroman-6-yl)methyl)nonanamide] | 5.14 | 8.06 | 58 | activity against L. infantum (in words) [1]: notable anti-leishmanial activity
CCCCNCc1ccc2c(c1)C(=O)CC(C)(C)S2 [Compound 12a, 6-((Butylamino)methyl)-2,2-dimethylthiochroman-4-one] | 4.58 | 1.25 | 33.2 | 
CCCCCCNCc1ccc2c(c1)C(=O)CC(C)(C)S2 [Compound 12b, 6-((Hexylamino)methyl)-2,2-dimethylthiochroman-4-one] | 4.64 | 1.12 | 25.8 | 
CCCCCCCCNCc1ccc2c(c1)C(=O)CC(C)(C)S2 [Compound 12c, 2,2-Dimethyl-6-((octylamino)methyl)thiochroman-4-one] | 4.71 | 1.16 | 22.6 | 
CCCCCCCCCCNCc1ccc2c(c1)C(=O)CC(C)(C)S2 [Compound 12d, 2,2-Dimethyl-6-((decylamino)methyl)thiochroman-4-one] | 4.91 | 1.86 | 23.1 | 
CCCCCCCCNCc1ccc2c(c1)C(=O)CC(C)(C)[S+]2[O-] (stereo not shown) [Compound 13, 2,2-Dimethyl-6-((octylamino)methyl)thiochroman-4-one 1-oxide] | 4.48 | 1.22 | 40.9 | 
CCCCCCCCNCc1ccc2c(c1)C(=O)CC(C)(C)S2(=O)=O [Compound 14, 2,2-Dimethyl-6-((octylamino)methyl)thiochroman-4-one 1,1-dioxide] | 4.47 | 1.27 | 42.8 | 
COc1cccc2c1C(=O)c1c(O)c3c(c(O)c1C2=O)C[C@@](O)(C(=O)CO)C[C@@H]3O[C@H]1C[C@H](N)[C@H](O)[C@H](C)O1 [Doxorubicin, reference compound] |  |  | 0.047 | 
(2,2-Dimethyl-4-oxothiochroman-6-yl)methyl-6-phenylhex-5-enoate [Compound 11b] |  |  |  | pIC50 [1]: 4.70; cytotoxicity to macrophages (in words) (J774A.1 cells; J774A.1, compared with activity against axenic amastigotes): comparably cytotoxic to macrophages; CC50 (J774A.1 cells; MTT, 72 h incubation, mean (standard deviation)): 14 µM
